Results: BindingDB's records for doi:10.1124/mol.57.3.642 (National Institute On Drug Abuse, 2000)
Counter-ions that a name gives are not always drawn.

What was measured:
[1] = biological target: Nicotinic acetylcholine receptor (Rattus leucopus, UniProt Q62594)
[2] = biological target: Neuronal acetylcholine receptor subunit alpha-4 (Rattus norvegicus, UniProt P09483)
[3] = biological target: Neuronal acetylcholine receptor subunit alpha-7 (Rattus norvegicus, UniProt Q05941)
[4] = biological target: Neuronal acetylcholine receptor subunit alpha-9 (Rattus norvegicus, UniProt P43144)
[5] = biological target: Neuronal acetylcholine receptor subunit alpha-3 (Rattus norvegicus, UniProt P04757)
Sequence of Neuronal acetylcholine receptor subunit alpha-3 (P04757 whole entry): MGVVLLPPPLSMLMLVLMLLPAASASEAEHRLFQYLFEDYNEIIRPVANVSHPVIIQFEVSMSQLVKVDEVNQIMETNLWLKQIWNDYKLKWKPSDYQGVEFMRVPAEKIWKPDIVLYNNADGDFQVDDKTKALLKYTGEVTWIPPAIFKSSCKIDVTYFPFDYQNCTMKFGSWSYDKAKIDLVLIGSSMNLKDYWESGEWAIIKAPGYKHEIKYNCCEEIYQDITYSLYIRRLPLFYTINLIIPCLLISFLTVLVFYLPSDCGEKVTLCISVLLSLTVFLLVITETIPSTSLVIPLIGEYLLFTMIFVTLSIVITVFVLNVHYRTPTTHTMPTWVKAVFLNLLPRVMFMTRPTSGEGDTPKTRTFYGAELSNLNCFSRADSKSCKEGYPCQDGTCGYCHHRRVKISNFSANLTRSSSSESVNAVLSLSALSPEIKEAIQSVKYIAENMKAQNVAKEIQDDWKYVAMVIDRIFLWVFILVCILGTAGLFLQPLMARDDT

Sequence of Nicotinic acetylcholine receptor (Q62594 whole entry): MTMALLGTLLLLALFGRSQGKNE
Sequence of Neuronal acetylcholine receptor subunit alpha-9 (P43144 whole entry): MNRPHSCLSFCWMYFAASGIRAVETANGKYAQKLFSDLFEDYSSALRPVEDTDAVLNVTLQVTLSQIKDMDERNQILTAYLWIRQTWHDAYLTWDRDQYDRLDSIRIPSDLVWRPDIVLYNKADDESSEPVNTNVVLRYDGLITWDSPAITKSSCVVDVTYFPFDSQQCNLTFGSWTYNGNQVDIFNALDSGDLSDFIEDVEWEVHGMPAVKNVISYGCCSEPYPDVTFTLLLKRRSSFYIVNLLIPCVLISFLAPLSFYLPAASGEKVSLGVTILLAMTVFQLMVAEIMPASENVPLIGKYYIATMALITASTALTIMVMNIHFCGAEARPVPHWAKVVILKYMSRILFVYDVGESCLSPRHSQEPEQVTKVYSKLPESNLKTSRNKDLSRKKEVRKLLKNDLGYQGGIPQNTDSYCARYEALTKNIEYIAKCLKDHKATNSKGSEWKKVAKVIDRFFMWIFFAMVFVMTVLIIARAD
Sequence of Neuronal acetylcholine receptor subunit alpha-7 (Q05941 whole entry): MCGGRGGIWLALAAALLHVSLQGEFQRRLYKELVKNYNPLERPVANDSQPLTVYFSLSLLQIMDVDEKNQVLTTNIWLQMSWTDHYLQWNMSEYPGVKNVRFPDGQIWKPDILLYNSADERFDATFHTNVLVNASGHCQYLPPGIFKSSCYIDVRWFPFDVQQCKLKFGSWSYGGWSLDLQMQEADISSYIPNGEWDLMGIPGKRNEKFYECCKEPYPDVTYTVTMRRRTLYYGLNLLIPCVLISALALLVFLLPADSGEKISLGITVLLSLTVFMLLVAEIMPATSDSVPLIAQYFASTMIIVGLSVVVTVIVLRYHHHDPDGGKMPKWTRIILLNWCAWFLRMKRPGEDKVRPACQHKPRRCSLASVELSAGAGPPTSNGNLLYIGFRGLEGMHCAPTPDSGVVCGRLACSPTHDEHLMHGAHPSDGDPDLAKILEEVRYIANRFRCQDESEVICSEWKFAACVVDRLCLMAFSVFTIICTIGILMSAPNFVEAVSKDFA
Sequence of Neuronal acetylcholine receptor subunit alpha-4 (P09483 whole entry): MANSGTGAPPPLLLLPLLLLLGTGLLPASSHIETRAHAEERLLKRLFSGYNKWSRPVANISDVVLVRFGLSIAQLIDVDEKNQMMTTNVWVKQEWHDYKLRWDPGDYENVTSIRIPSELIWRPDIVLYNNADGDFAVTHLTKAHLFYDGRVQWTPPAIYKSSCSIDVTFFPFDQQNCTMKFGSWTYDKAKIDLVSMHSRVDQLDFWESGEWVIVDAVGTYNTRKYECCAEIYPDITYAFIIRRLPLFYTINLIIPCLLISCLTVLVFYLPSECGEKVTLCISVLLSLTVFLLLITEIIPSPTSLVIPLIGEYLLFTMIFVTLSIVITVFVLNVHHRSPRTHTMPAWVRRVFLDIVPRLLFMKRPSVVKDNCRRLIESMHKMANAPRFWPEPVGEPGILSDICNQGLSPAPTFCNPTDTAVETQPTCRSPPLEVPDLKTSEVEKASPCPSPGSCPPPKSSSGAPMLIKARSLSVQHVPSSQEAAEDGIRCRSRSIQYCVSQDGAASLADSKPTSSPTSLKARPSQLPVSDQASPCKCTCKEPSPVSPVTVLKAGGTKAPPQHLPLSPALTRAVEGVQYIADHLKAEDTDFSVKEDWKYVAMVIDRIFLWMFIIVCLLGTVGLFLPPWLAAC

CNC(=O)Oc1ccc2c(c1)[C@]1(C)CCN(C)C1N2C (stereo partly drawn)
Ki [1]: > 10000 nM

c1cncc(OC[C@@H]2CCN2)c1
Ki [2]: 0.01 nM
Ki [3]: 17 nM
Ki [4]: 320 nM

C=C(C=O)C[C@H]1C[C@H](O)[C@]2(C)O[C@@H]3C[C@@H]4O[C@@H]5C[C@]6(C)O[C@]7(C)CC[C@@H]8O[C@@H]9C[C@]%10(C)O[C@@H]%11C(C)=CC(=O)O[C@H]%11C[C@H]%10O[C@H]9C[C@@H](C)[C@H]8O[C@H]7C[C@H]6O[C@@]5(C)C/C=C\[C@H]4O[C@H]3C[C@H]2O1
Ki [1]: 2500 nM

O=C(CCCN1CCC(O)(c2ccc(Cl)cc2)CC1)c1ccc(F)cc1 [4-[4-(4-Chloro-phenyl)-4-hydroxy-piperidin-1-yl]-1-(4-fluoro-phenyl)-butan-1-one;propionate(HCl)]
Ki [1]: > 10000 nM

O=c1cccc2n1C[C@H]1CNC[C@H]2C1 [(1S,9R)-7,11-diazatricyclo[7.3.1.0~2,7~]trideca-2,4-dien-6-one]
Ki [5]: 54 nM
Ki [2]: 0.18 nM
Ki [3]: 260 nM
Ki [4]: 190 nM

CN1CCc2cccc3c2[C@H]1Cc1ccc(O)c(O)c1-3 [APOKYN]
Ki [1]: > 10000 nM

CN1[C@@H]2CC[C@H]1CC(OC(=O)[C@H](CO)c1ccccc1)C2 (stereo partly drawn) [CAS_51-55-8]
Ki [1]: > 10000 nM

COc1cc2c3cc1Oc1cc(ccc1O)CC1c4c(cc(OC)c(O)c4Oc4ccc(cc4)CC3[N+](C)(C)CC2)CC[N+]1(C)C (stereo not drawn) [CAS_8063-06-7]
Ki [1]: 730 nM

Ic1ccc(C2CC3CCC2N3)cn1 (stereo not drawn) [IPH]
Ki [5]: 0.11 nM
Ki [2]: 0.02 nM
Ki [3]: 30 nM
Ki [4]: 6.5 nM

C=CCN1CC[C@]23c4c5ccc(O)c4O[C@H]2C(=O)CC[C@@]3(O)[C@H]1C5 [[17-(2,3-3H-2-propenyl)]-4,5a-epoxy-3,14-dihydroxymorphinan-6-one]
Ki [1]: > 10000 nM
